Source: ChEMBL document CHEMBL4428024, “Targeting the Bacterial Division Protein FtsZ” (J Med Chem, 2016)
In brackets after ≈: the same amount, converted by molar mass.

What was measured:
[1] = system: Staphylococcus aureus; assay: Antimicrobial activity against Staphylococcus aureus; type: functional
[2] = biological target: T1, Cell division protein FtsZ (Staphylococcus aureus) (UniProt P0A031); assay: Activation of Staphylococcus aureus FtsZ assessed as increase in GTPase activity by malachite green assay
T1 sequence (whole entry): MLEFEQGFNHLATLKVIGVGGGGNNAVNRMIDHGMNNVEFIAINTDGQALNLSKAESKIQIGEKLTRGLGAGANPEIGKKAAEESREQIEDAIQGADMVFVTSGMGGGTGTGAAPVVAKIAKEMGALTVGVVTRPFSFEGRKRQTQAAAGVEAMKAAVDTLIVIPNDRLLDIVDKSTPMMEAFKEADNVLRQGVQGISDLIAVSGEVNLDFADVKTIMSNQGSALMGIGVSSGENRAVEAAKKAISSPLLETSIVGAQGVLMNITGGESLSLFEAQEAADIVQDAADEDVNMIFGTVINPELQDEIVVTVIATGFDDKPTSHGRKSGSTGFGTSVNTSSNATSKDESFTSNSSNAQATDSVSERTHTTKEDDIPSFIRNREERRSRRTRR

[3] = system: Escherichia coli; assay: Antimicrobial activity against Escherichia coli; type: functional
[4] = biological target: T1, Cell division protein FtsZ (Staphylococcus aureus); assay: Inhibition of Staphylococcus aureus FtsZ assessed as reduction in GTPase activity by coupled enzyme assay
[5] = system: Staphylococcus aureus; assay: Antimicrobial activity against methicillin resistant Staphylococcus aureus; type: functional
[6] = biological target: T2, Cell division protein FtsZ (Escherichia coli K-12) (UniProt P0A9A6); assay: Inhibition of Escherichia coli FtsZ assessed as reduction in GTPase activity by malachite green assay
T2 sequence (whole entry): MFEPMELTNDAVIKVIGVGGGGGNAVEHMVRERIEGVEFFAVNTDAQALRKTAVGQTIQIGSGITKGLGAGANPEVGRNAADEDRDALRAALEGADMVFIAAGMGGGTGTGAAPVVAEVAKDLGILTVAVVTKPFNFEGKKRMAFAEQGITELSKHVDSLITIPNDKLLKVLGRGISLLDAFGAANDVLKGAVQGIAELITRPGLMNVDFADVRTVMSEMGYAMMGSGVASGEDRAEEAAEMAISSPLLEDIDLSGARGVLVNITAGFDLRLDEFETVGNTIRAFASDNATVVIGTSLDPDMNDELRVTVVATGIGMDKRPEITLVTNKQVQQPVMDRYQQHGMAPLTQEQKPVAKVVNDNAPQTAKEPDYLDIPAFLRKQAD

[7] = system: Bacillus subtilis; assay: Antimicrobial activity against Bacillus subtilis; type: functional
[8] = system: Enterococcus faecalis; assay: Antimicrobial activity against Enterococcus faecalis; type: functional
[9] = Inhibition of ZipA-FtsZ protein-protein interaction (unknown origin) assessed as reduction in binding of fluorescein-labeled analogue of FtsZ C-terminal residues (367 to 383 residues) to C-terminal domain of ZipA (185 to 328 residues) by fluorescence polarization assay
[10] = system: Mycolicibacterium smegmatis; assay: Antimicrobial activity against Mycobacterium smegmatis; type: functional
[11] = biological target: T3, Cell division protein FtsZ (Bacillus subtilis) (UniProt A5Z1V5); assay: Inhibition of Bacillus subtilis FtsZ assessed as reduction in GTPase activity by malachite green assay
T3 sequence (whole entry): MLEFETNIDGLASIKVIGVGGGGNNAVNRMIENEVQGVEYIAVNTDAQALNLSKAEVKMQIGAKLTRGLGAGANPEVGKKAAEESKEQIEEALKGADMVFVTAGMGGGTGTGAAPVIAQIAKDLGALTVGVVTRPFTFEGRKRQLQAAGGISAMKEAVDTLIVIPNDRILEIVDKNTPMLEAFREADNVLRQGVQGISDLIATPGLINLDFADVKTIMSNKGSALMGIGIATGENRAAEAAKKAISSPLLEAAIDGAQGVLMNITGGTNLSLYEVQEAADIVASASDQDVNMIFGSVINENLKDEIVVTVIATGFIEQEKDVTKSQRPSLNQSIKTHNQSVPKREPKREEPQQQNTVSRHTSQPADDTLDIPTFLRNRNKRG

[12] = biological target: T2, Cell division protein FtsZ (Escherichia coli K-12)
Description: Binding affinity to Escherichia coli FtsZ

[13] = biological target: T2, Cell division protein FtsZ (Escherichia coli K-12); assay: Inhibition of Escherichia coli FtsZ assessed as reduction in GTPase activity by coupled enzyme assay
[14] = biological target: T4, Cell division protein FtsZ (Mycobacterium tuberculosis) (UniProt P9WN95); assay: Inhibition of Mycobacterium tuberculosis FtsZ assessed as reduction in GTPase activity by malachite green assay
T4 sequence (whole entry): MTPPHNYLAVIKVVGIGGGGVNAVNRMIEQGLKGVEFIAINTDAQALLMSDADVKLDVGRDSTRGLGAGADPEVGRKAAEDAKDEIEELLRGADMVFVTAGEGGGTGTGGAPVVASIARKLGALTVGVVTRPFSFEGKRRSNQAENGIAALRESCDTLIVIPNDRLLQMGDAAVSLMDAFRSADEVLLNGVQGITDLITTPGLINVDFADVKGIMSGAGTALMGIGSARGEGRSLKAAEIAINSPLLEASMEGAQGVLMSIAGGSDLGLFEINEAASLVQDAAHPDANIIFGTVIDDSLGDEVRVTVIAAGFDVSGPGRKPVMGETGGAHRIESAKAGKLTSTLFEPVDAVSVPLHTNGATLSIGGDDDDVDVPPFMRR

[15] = biological target: T4, Cell division protein FtsZ (Mycobacterium tuberculosis); assay: Inhibition of Mycobacterium tuberculosis FtsZ assessed as reduction in GTPase activity by coupled enzyme assay
[16] = biological target: T2, Cell division protein FtsZ (Escherichia coli K-12); assay: Inhibition of Escherichia coli FtsZ assessed as reduction in polymerization
[17] = biological target: T5, Cell division protein FtsZ (Escherichia coli K-12, UniProt P0A9A6); assay: Displacement of bis-ANS from Escherichia coli FtsZ
T5 sequence (P0A9A6 whole entry): T2 sequence (whole entry)

NC(=O)c1c(F)ccc(OCc2nc3cc(Cl)cnc3s2)c1F
MIC [1]: 1 µg/mL (≈ 2.81 µM) | Activity [2]: 0.1 µM

CCC(CC)c1cc([C@H]2CN3CC[C@H]2C[C@@H]3CN)nc(-c2ccncc2)n1
MIC [1]: 6.53 µg/mL (≈ 17.9 µM) | MIC [3]: 13.1 µg/mL (≈ 35.8 µM) | INH [4]: 37.5 µM

Oc1cc(O)c2c(c1)C/C(Cl)=C\Cc1cc(c(Cl)cc1O)Oc1c(O)cc(cc1O)C/C(Cl)=C\Cc1cc(c(Cl)cc1O)O2
INH [5]: 1.5 µg/mL | MIC [1]: 1.8 µg/mL (≈ 2.65 µM) | INH [6]: 9.88 µM

O=C(O)c1ccc(-c2cccc(-c3c(-c4ccccc4)[nH]c4ccccc34)c2)cc1
MIC [1]: 4 to 8 µg/mL | MIC [7]: 4 µg/mL (≈ 10.3 µM) | MIC [8]: 8 to 16 µg/mL | IC50 [9]: 192 µM

CC(=O)O[C@@]12CO[C@@H]1C[C@H](O)[C@@]1(C)C(=O)[C@H](O)C3=C(C)[C@@H](OC(=O)/C=C/c4ccc5ccccc5c4)C[C@@](O)([C@@H](OC(=O)c4ccccc4)[C@H]21)C3(C)C
INH [7]: 38 µM | INH [10]: 60 µM | INH [11]: 35 µM

O=C/C=C/c1ccccc1 [CINNAMALDEHYDE]
Ka [12]: 1 µM | INH [1]: 250 mg/L | INH [7]: 500 mg/L | INH [3]: 1000 mg/L | INH [6]: 5.81 µM

CCN(CC)CCNc1nc(/C=C/c2ccc(Cl)cc2)nc2cc3ccccc3cc12
IC50 [13]: 15 µM | INH [5]: 4.31 µg/mL | MIC [7]: 1.08 µg/mL (≈ 2.51 µM) | INH [14]: 50 µM | MIC [3]: >34 µg/mL | INH [15]: 50 µM | IC50 [16]: 15 µM

COc1ccc2cc3[n+](cc2c1OC)CCc1cc2c(cc1-3)OCO2.[Cl-] [BERBERINE CHLORIDE]
MIC [1]: 32 to 128 µg/mL | MIC [7]: 100 µg/mL | Kd [17]: 0.023 µM | INH [3]: >400 µM | INH [6]: 16 µM | IC50 [16]: 10 µM
